{"source": "patent US8580776B2", "about": "“Compositions and methods for treating neurodegenerating diseases” (The Board of Trustees of the University of Illinois, priority 2007, dated 2013)", "key": {"NOS2": {"tested_on": "NOS2", "assay": "NOS2 and NeuN staining in wild type mice treated with DSP4 and injected with Aβ1-42", "type": "in vivo", "settings": "Aβ1-42 injected", "protocol": "Genotyping was performed to confirm identity of NOS2 null and wild type littermates (FIG. 7A), and wild type mice treated with DSP4, and wild type mice treated with DSP4 and injected with oligomeric Aβ1-42 (FIG. 7B). One day later brain sections were analyzed for NOS2 (green) and NeuN (red) staining White arrows indicate neurons labeled with both antibodies.\nWild type and NOS2 null mice were treated with two i.p. injections of DSP4 as described below, and injected with oligomeric Aβ1-42 4 weeks after the second DSP4 injection. One day later brain sections were prepared from the mice, sections from wild type (FIG. 8A) and NOS2 null mice (FIG. 8B) were stained for SMI-32.\nSlides were washed for 5 min. with PBS and blocked with 5% normal donkey serum in PBS at room temperature for 30 min. Primary antibodies were diluted in 1% normal donkey serum in PBS. […] Images were obtained on a Zeiss Axioplan2 fluorescence microscope equipped with an Axiocam MRm digital camera and Axiovision 4.2 imaging software.\nQuantitative analysis of NOS2 positively staining cells was performed as described above. In brief, NOS2 positive containing neurons having large cell bodies were counted in 5 sections having a defined distance (0, 200 and 400 μm rostral and caudal) relative to the level of cortical injection, in brain sections from at least 3 or 4 animals per group. […]"}, "IκBα": {"tested_on": "IκBα", "assay": "QPCR of IκBα mRNA in frontal cortex of DSP4-treated rats", "type": "in vivo, rat", "protocol": "In this experiment, the effects of DSP4 on tyrosine hydroxylase (TH) and IkBα expression were analyzed. Adult rat Sprague Dawley rats were treated with the selective neurotoxin DSP4 to lesion locus ceruleus (LC) noradrenergic neurons and deplete cortical NA levels as described in Example 1.\nRNA samples from control or DSP4-treated rats (n=4 each) were converted to cDNA and analyzed by QPCR for relative levels of tyrosine hydroxylase (TH) (FIG. 6A) in the locus ceruleus (LC).\nTotal cytoplasmic RNA from tissues was prepared from cells using TRIZOL reagent according to manufacturer procedures (Invitrogen/GIBCO); aliquots were converted to cDNA using random hexamer primers, and mRNA levels were estimated by quantitative touchdown PCR (QPCR). Conditions were 35 cycles of denaturation at 94° C. for 10 s; annealing at 58-64° C. for 15 s; and extension at 72° C. for 20 s on a Corbett Rotorgene Real-Time PCR unit (Corbett, Australia). The PCR mastermix contained SYBR Green (1 μl diluted 1:10,000 SybrGreen I 10,000× concentrate, Molecular Probes, Eugene, Oreg.). Relative mRNA concentrations were calculated from the takeoff point of reactions using manufacturer's software. Melting curve analysis and agarose gel electrophoresis were performed to ensure production of single and corrected size products. […]"}, "astrocyte marker GFAP": {"tested_on": "astrocyte marker GFAP", "assay": "Glial activation: GFAP staining of brain sections", "type": "in vivo, mice", "protocol": "The effects of DSP4 treatment on glial activation were assessed in hippocampus and frontal cortex by staining for microglial marker Mac1 and astrocyte marker GFAP (FIG. 3). Sections from vehicle and DSP4 treated H6 mice brains were stained with antibodies directed against Mac1 to assess microglial activation (FIG. 3A-C); and GFAP to assess astrocyte activation (FIG. 3D-F). […] FIGS. 3G-3I show quantitative analysis of Mac1 (FIG. 3G-3H) and GFAP staining (FIG. 31).\nHemibrains were fixed overnight in 4% paraformaldehyde in 0.1M phosphate buffer, then overnight in 10% sucrose in 0.1M phosphate buffer, and then frozen in isopentane at −30° C. Serial sections (35 um thick) were prepared on a cryostat, and stored in cryoprotective solution (0.1M phosphate buffer: ethyleneglycol:glycerol 30:40:30) at −20° C. […] Staining was quantified using software provided by the manufacturer (Zeiss AxioVision). GFAP and Mac1 staining was quantified in 3 different areas on each of 4 serial sections for each animal (n=3 or 4 for Mac1; n=7 or 9 for GFAP staining) The data was average area stained per section (as % total area) from DSP4-treated (n=3 for Mac1; n=7 for GFAP) and vehicle-treated (n=4 for Mac1; n=9 for GFAP) mice. […]"}}, "data": [{"smiles": "CCN(CCCl)Cc1ccccc1Br", "note": "[DSP4, N-(2-chloroethyl)-N-ethyl-2-bromobenzylamine]", "values": [{"measurement": "NOS2 expression in neurons", "setting": "NOS2", "value": "increases NOS2 expression in neurons"}, {"measurement": "cortical IκBα mRNA levels", "setting": "IκBα; P<0.01", "value": 45, "unit": "% versus control values"}, {"measurement": "reduction of cortical IκBα mRNA levels", "setting": "IκBα; versus control values, n=4, P<0.01", "value": 55, "unit": "%"}, {"measurement": "GFAP staining, frontal cortex", "setting": "astrocyte marker GFAP; low levels of staining, not shown", "value": "little effect"}, {"measurement": "increase in GFAP staining, hippocampus", "setting": "astrocyte marker GFAP; versus vehicle, significant", "value": "approximately 68%"}]}]}
